In assay [1] the test system is TGF-β. As to the kind of experiment: AlphaScreen SureFire p-SMAD3 (Ser423/425) assay, TGF-β-stimulated cells. The format is cell-based. The following applies: Mus musculus; p-SMAD3 (Ser423/425) AlphaScreen in cell lysate; MPC-11; TGF-β stimulation; read-out: TGF-β: inhibition of TGF-β signaling, TGF-β pSMAD (MPC-11). Put shortly:
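The p-SMAD-3 (Ser423/425) SureFire assay measured phosphorylation of endogenous SMAD-3 in cell lysates. Cells were plated overnight in collagen-coated plates, exposed to three-fold serially diluted compounds for about 10 minutes, then stimulated with TGFβ. Lysates (5 μL) received acceptor bead mix for 2 hours, then donor beads for 1½ hours before AlphaScreen reading.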

Assay [2] deals with GDF8. As to the kind of experiment: AlphaScreen SureFire p-SMAD3 (Ser423/425) assay, GDF8-stimulated cells. The assay is classed as cell-based. As to conditions: Mus musculus, MPC-11; p-SMAD3 (Ser423/425) AlphaScreen in cell lysate; MPC11; GDF8 stimulation; read-out: GDF8: inhibition of GDF8 signaling, GDF pSMAD (MPC11). Put shortly: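 Lysate (5 μL) went into 384-well shallow plates with 5 μL of Reaction Buffer, Activation Buffer and AlphaScreen Acceptor bead mix. Plates were sealed, kept dark and shaken for 2 hours at room temperature. Donor beads in dilution buffer (2 μL) were added for another 1½ hours, and p-SMAD3 signal was read on a Synergy-4 or Enspire reader.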
On the technique in general: Alpha assays give light when donor and acceptor beads are brought close together.

From patent US10696693B2, “Fused imidazole derivatives as TGF-beta inhibitors” (Rigel Pharmaceuticals, Inc., priority 2014, dated 2020) come the findings set out here.

For the compound `c1ccc(-c2nc3n(c2-c2ccc4ncccc4c2)CCC3)nc1` [Compound 369, 6-(2-(pyridin-2-yl)-6,7-dihydro-5H-pyrrolo[1,2-a]imidazol-3-yl)quinoline], the IC50 in assay [1] was 50 to 100 nM; in assay [2] it was less than 50 nM.
As for `c1ccc(-c2nc3n(c2-c2ccc4nccn4c2)CCC3)nc1` [Compound 370, 6-(2-(pyridin-2-yl)-6,7-dihydro-5H-pyrrolo[1,2-a]imidazol-3-yl)imidazo[1,2-a]pyridine], the IC50 in assay [1] and in assay [2] was less than 50 nM throughout.
